From the RepoRT retention time repository (doi:10.1016/j.foodchem.2021.129757)

Tests used:
Conditions in all cases: stereoisomer not certain
[1] = RP, 150 × 2.1 mm, 2.6 µm, 40 °C, 0.35 mL/min, estimated dead time 0.94 min; A: water + 0.1% formic acid, pH 3; B: acetonitrile + 0.1% formic acid, pH 3; gradient (min/%B) 0/0 1/5 7/45 8.5/80 10.5/80 11/5 12/5
[2] = RP, 150 × 2.1 mm, 2.6 µm, 40 °C, 0.35 mL/min, estimated dead time 0.94 min; A: water + 0.1% formic acid, pH 3; B: acetonitrile + 0.1% formic acid, pH 3; gradient (min/%B) 0/0 1/0 12.5/100 14/100 14.2/0 15/0
[3] = RP, Phenomenex Synergi Hydro-RP, 250 × 2 mm, 4 µm, 25 °C, 0.2 mL/min, estimated dead time 2.5 min; A: water + 0.1% formic acid, pH 3; B: acetonitrile + 0.1% formic acid, pH 3; gradient (min/%B) 0/0.5 7/0.5 12/12.5 25/16.3 47/35 48/65 50/65 50.1/0.5
[4] = RP, Agilent ZORBAX Eclipse XDB-C18, 100 × 2.1 mm, 1.8 µm, 50 °C, 0.4 mL/min, estimated dead time 0.55 min; A: water + 0.1% formic acid, pH 3; B: methanol + 0.1% formic acid, pH 3; gradient (min/%B) 0/2 10/100 14.5/100 14.51/2 16.5/2
[5] = RP, Waters ACQUITY UPLC HSS T3, 100 × 2.1 mm, 1.8 µm, 30 °C, 0.4 mL/min, estimated dead time 0.55 min; A: water + 0.1% formic acid, pH 3; B: acetonitrile + 0.1% formic acid, pH 3; gradient (min/%B) 0/0 2/0 15/100 22/100 22.1/0 26/0
[6] = RP, Waters ACQUITY UPLC HSS T3, 100 × 2.1 mm, 50 °C; A: water + 0.1% formic acid, pH 3; B: 30% methanol + 70% acetonitrile + 0.1% formic acid, pH 3; gradient (min/%B) 0/5 1/8 2/15 3/40 4/70 4.5/100 5/100 6.4/100 6.6/5 6.8/5 7/5
[7] = RP, Waters ACQUITY UPLC BEH C18, 100 × 2.1 mm, 1.7 µm, 65 °C, 0.4 mL/min, estimated dead time 0.55 min; A: water + 0.1% formic acid, pH 3; B: 80% acetonitrile + 20% acetone + 0.1% formic acid, pH 3; gradient (min/%B) 0/0 5/100 5.5/0 6/0

COc1cc(-c2oc3cc(O)cc(O)c3c(=O)c2OC2OC(CO)C(O)C(O)C2O)cc(OC)c1O (centres undefined) [Syringetin-3-glucoside]
LC retention time [1]: 6.17 min
LC retention time [2]: 6 min

O=C(C=Cc1ccc(O)cc1)OCC1OC(Oc2c(-c3ccc(O)cc3)oc3cc(O)cc(O)c3c2=O)C(O)C(O)C1O (centres undefined) [Tiliroside]
LC retention time [3]: 47 min

COc1ccc2[nH]cc(CCNC(C)=O)c2c1 [Melatonin]
LC retention time [1]: 6.35 min
LC retention time [2]: 6.29 min

CC(=O)NCCc1c[nH]c2ccc(O)cc12 [N-acetylserotonin]
LC retention time [1]: 4.5 min
LC retention time [2]: 4.69 min

CCC=CCC1C(=O)CCC1CC(=O)OC (centres undefined) [Methyl jasmonate]
LC retention time [1]: 7.97 min
LC retention time [4]: 7.77 min
LC retention time [2]: 7.64 min

COc1ccccc1C(=O)O [o-Anisic acid]
LC retention time [3]: 31.4 min

O=c1c(OC2OC(CO)C(O)C(O)C2O)c(-c2ccc(O)c(O)c2)oc2cc(O)cc(O)c12 (centres undefined) [Quercetin-3-O-galactoside]
LC retention time [1]: 5.74 min
LC retention time [2]: 5.66 min

O=c1ccc2ccc(O)cc2o1 [Umbelliferone]
LC retention time [5]: 9.65 min
LC retention time [1]: 7.69 min
LC retention time [2]: 5.77 min

CC(=O)OCC1OC(Oc2c(-c3ccc(O)c(O)c3)oc3cc(O)cc(O)c3c2=O)C(O)C(O)C1O (centres undefined) [Quercetin-3-O-(6-acetylglucoside)]
LC retention time [3]: 38.8 min

COc1cccc(C=CC(=O)O)c1 [3-methoxycinnamic acid]
LC retention time [3]: 49.1 min

O=C(O)C1(O)CC(O)C(O)C(O)C1 (centres undefined) [Quinic acid]
LC retention time [6]: 0.58 min
LC retention time [3]: 3.21 min
LC retention time [5]: 1.05 min

O=C(O)C(O)Cc1ccccc1 (centres undefined) [3-Phenyllactic acid]
LC retention time [3]: 27.2 min

O=C(O)c1cc(=O)c2ccccc2[nH]1 [kynurenic acid]
LC retention time [1]: 4.06 min
LC retention time [2]: 4.3 min

O=c1cc(O)c2ccccc2o1 [4-hydroxycoumarin]
LC retention time [1]: 6.59 min
LC retention time [2]: 6.51 min

Cc1cc(=O)oc2cc(O)ccc12 [4-methylumbelliferone]
LC retention time [1]: 6.46 min
LC retention time [2]: 6.41 min

O=c1c(OC2OC(CO)C(O)C(O)C2O)c(-c2ccc(O)cc2)oc2cc(O)cc(O)c12 [Kaempferol 3-O-D-galactoside]
LC retention time [3]: 37.2 min

COc1cc(CCC(=O)O)ccc1O [Hydroferulic acid]
LC retention time [3]: 28.5 min
LC retention time [5]: 9.38 min

COc1ccc2[nH]cc(CC(=O)O)c2c1 [5-Methoxyindoleacetic acid]
LC retention time [1]: 6.29 min
LC retention time [2]: 6.26 min

NC(=O)Cc1c[nH]c2ccccc12 [3-Indoleacetamide]
LC retention time [1]: 5.15 min
LC retention time [2]: 5.28 min

COc1ccc(C=CC(=O)O)cc1 [4-methoxycinnamic acid]
LC retention time [3]: 48 min

O=C(O)CC(=O)OCC1OC(Oc2c(-c3ccc(O)c(O)c3)oc3cc(O)cc(O)c3c2=O)C(O)C(O)C1O (centres undefined) [Quercetin 3-O-malonylglucoside]
LC retention time [3]: 37 min

O=S(=O)(O)c1[nH]c2ccccc2c1CCO [Tryptophol-2-sulfonate]
LC retention time [1]: 4.57 min
LC retention time [2]: 4.73 min

O=c1c(O)c(-c2ccc(OC3OC(CO)C(O)C(O)C3O)c(O)c2)oc2cc(O)cc(O)c12 (centres undefined) [Quercetin 4-glucoside]
LC retention time [1]: 6.25 min

COc1cccc(C(=O)O)c1 [m-Anisic acid]
LC retention time [3]: 40.2 min

Nc1c(O)cccc1C(=O)O [3-Hydroxyanthranilic acid]
LC retention time [1]: 2.89 min
LC retention time [2]: 3.21 min

O=C(O)c1cccnc1 [Niacin]
LC retention time [3]: 5.51 min

COc1ccc(CC(=O)O)cc1OC [homoveratric acid]
LC retention time [3]: 32.5 min

COC(=O)Cc1c[nH]c2ccccc12 [Methyl indole acetate]
LC retention time [1]: 8.34 min
LC retention time [2]: 8.01 min

O=C(O)CCc1ccccc1 [3-phenylpropionic acid]
LC retention time [3]: 44.5 min
LC retention time [7]: 2.78 min

O=c1cc(-c2ccc(O)c(O)c2)oc2c(C3OC(CO)C(O)C(O)C3O)c(O)cc(O)c12 (centres undefined) [Orientin]
LC retention time [1]: 5.29 min
LC retention time [2]: 5.3 min

NCCc1c[nH]c2ccc(O)cc12 [Serotonin]
LC retention time [1]: 1.45 min
LC retention time [2]: 1.54 min

O=c1[nH]c(=O)c2[nH]c(=O)[nH]c2[nH]1 [Uric acid]
LC retention time [3]: 7.67 min

COc1cc2c(CCNC(C)=O)c[nH]c2cc1O [6-Hydroxymelatonin]
LC retention time [1]: 5.05 min
LC retention time [2]: 5.14 min

COc1ccccc1C=CC(=O)O [2-Methoxycinnamic acid]
LC retention time [3]: 50 min

C=CCC(=NOS(=O)(=O)O)SC1OC(CO)C(O)C(O)C1O (centres undefined) [Sinigrin]
LC retention time [3]: 5.52 min

O=C(O)CCCc1c[nH]c2ccccc12 [3-Indolebutyric acid]
LC retention time [1]: 7.97 min
LC retention time [2]: 7.63 min

O=C(O)CNC(=O)c1ccco1 [2-Furoylglycine]
LC retention time [7]: 1.51 min
LC retention time [1]: 2.35 min
LC retention time [2]: 2.51 min

O=c1ccc2cc(OC3OC(CO)C(O)C(O)C3O)c(O)cc2o1 (centres undefined) [Esculin]
LC retention time [1]: 3.94 min
LC retention time [2]: 4.11 min

O=S(=O)(O)ON=C(CCc1ccccc1)SC1OC(CO)C(O)C(O)C1O (centres undefined) [Gluconasturtiin]
LC retention time [3]: 19.3 min

O=C1CC(c2ccc(O)cc2)Oc2cc(OC3OC(CO)C(O)C(O)C3O)cc(O)c21 (centres undefined) [Naringenin 7-O-glucoside]
LC retention time [1]: 6.17 min
LC retention time [2]: 6.02 min

CS(=O)CCCCC(=NOS(=O)(=O)O)SC1OC(CO)C(O)C(O)C1O (centres undefined) [Glucoraphanin]
LC retention time [3]: 6.23 min

Nc1nc2ncc(CNc3ccc(C(=O)NC(CCC(=O)O)C(=O)O)cc3)nc2c(=O)[nH]1 (centres undefined) [Folic acid]
LC retention time [3]: 19 min
LC retention time [4]: 3.46 min

Cn1c(=O)c2c(ncn2C)n(C)c1=O [Caffeine]
LC retention time [6]: 3.1 min
LC retention time [3]: 21.3 min
LC retention time [5]: 8.11 min
LC retention time [7]: 1.67 min
LC retention time [4]: 3.67 min

CC1OC(OCC2OC(Oc3c(-c4ccc(O)cc4)oc4cc(OC5OC(C)C(O)C(O)C5O)cc(O)c4c3=O)C(O)C(O)C2O)C(O)C(O)C1O (centres undefined) [Robinin]
LC retention time [3]: 31.8 min

CC1OC(OCC2OC(Oc3c(-c4ccc(O)c(O)c4)oc4cc(OC5OC(CO)C(O)C(O)C5O)cc(O)c4c3=O)C(O)C(O)C2O)C(O)C(O)C1O (centres undefined) [Quercetin 3-O-rutinoside-7-O-glucoside]
LC retention time [3]: 20.6 min

C=CCCC(=NOS(=O)(=O)O)SC1OC(CO)C(O)C(O)C1O (centres undefined) [Gluconapin]
LC retention time [3]: 12.7 min

O=C(O)C(O)CCc1ccccc1 (centres undefined) [2-hydroxy-4-phenylbutyric acid]
LC retention time [1]: 6.6 min
LC retention time [2]: 6.54 min

O=C(O)CC(O)(CC(=O)O)C(=O)O [Citric acid]
LC retention time [6]: 0.67 min
LC retention time [3]: 6.32 min
LC retention time [4]: 1.09 min

CC(C=CC1(O)C(C)=CC(=O)CC1(C)C)=CC(=O)O (centres undefined) [Abscisic acid]
LC retention time [1]: 7.12 min
LC retention time [2]: 6.9 min

CS(=O)CCCC(=NOS(=O)(=O)O)SC1OC(CO)C(O)C(O)C1O (centres undefined) [Glucoiberin]
LC retention time [3]: 4.44 min

O=C(O)c1cc2ccccc2[nH]1 [2-Indolecarboxylic acid]
LC retention time [1]: 6.07 min
LC retention time [2]: 6.06 min

OCCc1c[nH]c2ccccc12 [Tryptophol]
LC retention time [1]: 6.48 min
LC retention time [2]: 6.45 min

COc1cc(CCC(=O)O)cc(OC)c1OC [3-(3,4,5-Trimethoxyphenyl)propionic acid]
LC retention time [1]: 6.73 min
LC retention time [2]: 6.58 min

O=C(O)CNCc1ccccc1O [salicylglycine]
LC retention time [3]: 27.4 min

NCC(=O)c1ccccc1 [2 aminoacetophenone]
LC retention time [1]: 6.86 min
LC retention time [2]: 6.84 min

COc1cccc(O)c1O [3-Methoxycatechol]
LC retention time [1]: 4.56 min
LC retention time [4]: 3.2 min
LC retention time [2]: 4.79 min
